Laboratory results from article PMC8253220, “Molecular design, synthesis and in vitro biological evaluation of thienopyrimidine–hydroxamic acids as chimeric kinase HDAC inhibitors: a challenging approach to combat cancer” (Journal of Enzyme Inhibition and Medicinal Chemistry, 2021).
“And” between values parts separate entries of the source, which are not always exact repeats. Identical values can stand only once.

Tests used:
Test in all cases: NCI one-dose screen
Assay type in all cases: cell-based, human
HCT-116 = conditions: Colon HCT-116, 10 µM single dose
Procedure, shortened: (§1)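 At 10 μM, a single concentration, compounds were evaluated for antiproliferative effect in the NCI 60-line screen, with growth expressed relative to untreated control cells.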

DU-145 = conditions: Prostate DU-145, 10 µM single dose
Procedure, shortened: as §1

MOLT-4 = conditions: Leukemia MOLT-4, 10 µM single dose
Procedure, shortened: (§2)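 In vitro antiproliferative testing: NCI-60 panel, initial single dose 10 μM, inhibition % derived from percent growth of treated versus untreated control cells.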

RXF 393 = conditions: Renal RXF 393, 10 µM single dose
Procedure, shortened: as §1

A549/ATCC = conditions: NSCLC A549/ATCC, 10 µM single dose
Procedure, shortened: as §1

NCI-H522 = conditions: NSCLC NCI-H522, 10 µM single dose
Procedure, shortened: (§3)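 One concentration (10 μM) applied to each line of the full NCI-60 panel; percent growth compared against untreated cells.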

HL-60(TB) = conditions: Leukemia HL-60(TB), 10 µM single dose
Procedure, shortened: as §1

UACC-62 = conditions: Melanoma UACC-62, 10 µM single dose
Procedure, shortened: as §1

SF-268 = conditions: CNS SF-268, 10 µM single dose
Procedure, shortened: as §2

COLO 205 = conditions: Colon COLO 205, 10 µM single dose
Procedure, shortened: as §1

SF-295 = conditions: CNS SF-295, 10 µM single dose
Procedure, shortened: as §1

OVCAR-3 = conditions: Ovarian OVCAR-3, 10 µM single dose
Procedure, shortened: as §1

SK-MEL-28 = conditions: Melanoma SK-MEL-28, 10 µM single dose
Procedure, shortened: (§4)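 Compounds were tested at a single dose of 10 μM across the full NCI-60 cell line panel. Growth was expressed as percent growth relative to untreated control cells, reported as percent inhibition.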

MCF7 = conditions: Breast MCF7, 10 µM single dose
Procedure, shortened: as §2

NCI-H460 = conditions: NSCLC NCI-H460, 10 µM single dose
Procedure, shortened: as §1

SR = conditions: Leukemia SR, 10 µM single dose
Procedure, shortened: as §1

SF-539 = conditions: CNS SF-539, 10 µM single dose
Procedure, shortened: as §2

SN12C = conditions: Renal SN12C, 10 µM single dose
Procedure, shortened: as §1

EKVX = conditions: NSCLC EKVX, 10 µM single dose
Procedure, shortened: as §3

PC-3 = conditions: Prostate PC-3, 10 µM single dose
Procedure, shortened: as §4

SNB-19 = conditions: CNS SNB-19, 10 µM single dose
Procedure, shortened: as §1

ACHN = conditions: Renal ACHN, 10 µM single dose
Procedure, shortened: as §1

U251 = conditions: CNS U251, 10 µM single dose
Procedure, shortened: as §3

CCRF-CEM = conditions: Leukemia CCRF-CEM, 10 µM single dose
Procedure, shortened: as §1

BT-549 = conditions: Breast BT-549, 10 µM single dose
Procedure, shortened: as §1

NCI-H322M = conditions: NSCLC NCI-H322M, 10 µM single dose
Procedure, shortened: as §1

CAKI-1 = conditions: Renal CAKI-1, 10 µM single dose
Procedure, shortened: as §1

SW-620 = conditions: Colon SW-620, 10 µM single dose
Procedure, shortened: as §4

OVCAR-8 = conditions: Ovarian OVCAR-8, 10 µM single dose
Procedure, shortened: as §1

TK-10 = conditions: Renal TK-10, 10 µM single dose
Procedure, shortened: as §1

LOX IMVI = conditions: Melanoma LOX IMVI, 10 µM single dose
Procedure, shortened: as §1

HOP-62 = conditions: NSCLC HOP-62, 10 µM single dose
Procedure, shortened: as §1

NCI-H226 = conditions: NSCLC NCI-H226, 10 µM single dose
Procedure, shortened: as §3

HS 578T = conditions: Breast HS 578T, 10 µM single dose
Procedure, shortened: as §1

NCI/ADR-RES = conditions: Ovarian NCI/ADR-RES, 10 µM single dose
Procedure, shortened: as §1

MDA-MB-231/ATCC = conditions: Breast MDA-MB-231/ATCC, 10 µM single dose
Procedure, shortened: as §1

MALME-3M = conditions: Melanoma MALME-3M, 10 µM single dose
Procedure, shortened: as §1

| SMILES | Growth Percent (HCT-116) | Growth Percent (DU-145) | Growth Percent (MOLT-4) | Growth Percent (RXF 393) | Growth Percent (A549/ATCC) | Growth Percent (NCI-H522) | Growth Percent (HL-60(TB)) | Growth Percent (UACC-62) | Growth Percent (SF-268) | Growth Percent (COLO 205) | Growth Percent (SF-295) | Growth Percent (OVCAR-3) | Growth Percent (SK-MEL-28) | Growth Percent (MCF7) | Growth Percent (NCI-H460) | Growth Percent (SR) | Growth Percent (SF-539) | Growth Percent (SN12C) | Growth Percent (EKVX) | Growth Percent (PC-3) | also measured |
| --- | --- | --- | --- | --- | --- | --- | --- | --- | --- | --- | --- | --- | --- | --- | --- | --- | --- | --- | --- | --- | --- |
| Cc1c(C(=O)NCCC(=O)NO)sc2ncnc(Nc3ccc(Cl)cc3)c12 [Compound 19c, 4–(4-chlorophenylamino)-N-(3-(hydroxyamino)-3-oxopropyl)-5-methylthieno[2,3-d]pyrimidine-6-carboxamide] | 102.1% and 102.16% | 114.2% | 108.6% and 108.67% | 109.2% and 109.21% | 107.5% and 107.54% | 90.0% and 90.06% | 104.5% and 104.56% | 101.7% and 101.73% | 97.6% and 97.68% | 115.7% and 115.76% | 99.7% and 99.97% | 110.3% and 110.31% | 112.1% | 93.4% | 100.4% and 100.45% | 101.3% and 101.35% | 99.0% | 101.7% and 101.77% | 98.4% and 98.49% | 110.4% and 110.47% | Growth Percent (SNB-19): 103.7% and 103.73%; Growth Percent (ACHN): 106.8% and 106.82%; Growth Percent (U251): 104.8% and 104.84%; Growth Percent (CCRF-CEM): 104.7% and 104.72%; Growth Percent (BT-549): 103.5% and 103.54%; Growth Percent (NCI-H322M): 105.7% and 105.79%; Growth Percent (CAKI-1): 90.4% and 90.48%; Growth Percent (SW-620): 102.5% and 102.53%; Growth Percent (OVCAR-8): 104.1% and 104.13%; Growth Percent (TK-10): 115.9% and 115.96%; Growth Percent (LOX IMVI): 98.8% and 98.82%; Growth Percent (HOP-62): 105.8% and 105.87%; Growth Percent (NCI-H226): 106.8% and 106.83%; Growth Percent (HS 578T): 105.8% and 105.84%; Growth Percent (NCI/ADR-RES): 105.4% and 105.48%; Growth Percent (MDA-MB-231/ATCC): 104.1% and 104.18%; Growth Percent (MALME-3M): 104.5% and 104.57% |
| Cc1c(C(=O)NO)sc2ncnc(Nc3cccc4[nH]cnc34)c12 [Compound 15a, 4-(1H-benzo[d]imidazol-4-ylamino)-N-hydroxy-5-methylthieno[2,3-d]pyrimidine-6-carboxamide] | 103.9% and 103.95% | 109.5% and 109.53% | 104% and 104.07% | 101.2% and 101.28% | 99.5% and 99.51% | 94.4% and 94.42% | 101.2% and 101.27% | 94.2% and 94.26% | 93.9% | 112.8% and 112.81% | 103.7% | 106.1% and 106.13% | 107.8% and 107.83% | 95.2% and 95.25% | 102.7% and 102.72% | 106% and 106.56% | 102.5% and 102.52% | 102.0% and 102.01% | 98.4% and 98.44% | 104.3% and 104.34% | Growth Percent (SNB-19): 98.9% and 98.99%; Growth Percent (ACHN): 99.1% and 99.11%; Growth Percent (U251): 96.7% and 96.72%; Growth Percent (CCRF-CEM): 110.7% and 110.72%; Growth Percent (BT-549): 113.5% and 113.56%; Growth Percent (NCI-H322M): 99.4% and 99.43%; Growth Percent (CAKI-1): 92.9% and 92.95%; Growth Percent (SW-620): 103.6% and 103.66%; Growth Percent (OVCAR-8): 103.6% and 103.64%; Growth Percent (TK-10): 113.8% and 113.84%; Growth Percent (LOX IMVI): 97.5% and 97.58%; Growth Percent (HOP-62): 104.2%; Growth Percent (NCI-H226): 99.3% and 99.31%; Growth Percent (HS 578T): 106.4% and 106.47%; Growth Percent (NCI/ADR-RES): 102.6% and 102.67%; Growth Percent (MDA-MB-231/ATCC): 102.4% and 102.49%; Growth Percent (MALME-3M): 109.7% and 109.71% |
